{
  "source": "patent US11052092B2",
  "about": "“N-{[2-(piperidin-1-yl)phenyl](phenyl)methyl}-2-(3-oxo-3,4-dihydro-2H-1,4-benzoxazin-7-yl)acetamide derivatives and related compounds as ROR-gamma modulators for treating autoimmune diseases” (Genfit, priority 2017, dated 2021)",
  "note": "Where a name gives a salt, the structure may show the parent alone.",
  "data": [
    {"units": {"melting point": "°C"}, "values": [
      {"compound": "Cc1ccc(C(NC(=O)Cc2cccc3c2CN(S(C)(=O)=O)C3)c2ccc(C)o2)c(N2CCCCC2)c1", "note": "(centres unmarked) (as salt: HCl) [Cpd. 50, 2-(2-methanesulfonyl-2,3-dihydro-1H-isoindol-4-yl)-N-{[4-methyl-2-(piperidin-1-yl)phenyl](5-methylfuran-2-yl)methyl}acetamide]", "melting point": 155},
      {"compound": "Cc1ccc(C(NC(=O)C2(c3ccc4c(c3)CN(S(C)(=O)=O)C4)CC2)c2ccc(C)o2)c(C)c1", "note": "(centres unmarked) (as salt: HCl) [Cpd. 65, N-[(2,4-dimethylphenyl)(5-methylfuran-2-yl)methyl]-1-(2-methanesulfonyl-2,3-dihydro-1H-isoindol-5-yl)cyclopropane-1-carboxamide]", "melting point": 67},
      {"compound": "CC(=O)N1CCc2cc(C3(C(=O)NC(c4ccc(C)o4)c4ccc(C)cc4C)CC3)ccc21", "note": "(centres unmarked) (as salt: HCl) [Cpd. 126, 1-(1-acetyl-2,3-dihydro-1H-indol-5-yl)-N-[(2,4-dimethylphenyl)(5-methylfuran-2-yl)methyl]cyclopropane-1-carboxamide]", "melting point": 75},
      {"compound": "Cc1ccc(C(NC(=O)Cc2ccc3c(c2)CCN3C(=O)C2CC2)c2ccc(C)o2)c(N2CCCCC2)c1", "note": "(centres unmarked) (as salt: HCl) [Cpd. 123, 2-(1-cyclopropanecarbonyl-2,3-dihydro-1H-indol-5-yl)-N-{[4-methyl-2-(piperidin-1-yl)phenyl](5-methylfuran-2-yl)methyl}acetamide]", "melting point": 94},
      {"compound": "Cc1ccc(C(NC(=O)C2(c3ccc4c(c3)CCC4=NO)CC2)c2ccc(C)o2)c(C)c1", "note": "(centres unmarked) (as salt: HCl) [Cpd. 165, N-[(2,4-dimethylphenyl)(5-methylfuran-2-yl)methyl]-1-[1-(hydroxyimino)-2,3-dihydro-1H-inden-5-yl]cyclopropane-1-carboxamide]", "melting point": 68},
      {"compound": "Cc1ccc(C(NC(=O)Cc2ccc3c(c2)CN(S(C)(=O)=O)C3)c2ccc(Cl)o2)c(N2CCCCC2)c1", "note": "(centres unmarked) (as salt: HCl) [Cpd. 79, N-[(5-chlorofuran-2-yl)[4-methyl-2-(piperidin-1-yl)phenyl]methyl]-2-(2-methanesulfonyl-2,3-dihydro-1H-isoindol-5-yl)acetamide]", "melting point": 143},
      {"compound": "Cc1ccc(C(NC(=O)C2(c3ccc4c(c3)CS(=O)(=O)N4CC3CCOCC3)CC2)c2ccc(C)o2)c(Br)c1", "note": "(centres unmarked) (as salt: HCl) [Cpd. 163, N-[(2-bromo-4-methylphenyl)(5-methylfuran-2-yl)methyl]-1-[1-(oxan-4-ylmethyl)-2,2-dioxo-1,3-dihydro-2,1-benzothiazol-5-yl]cyclopropane-1-carboxamide]", "melting point": 85},
      {"compound": "Cc1ccc(C(NC(=O)Cc2ccc3c(c2)C(O)CC3)c2ccc(C)o2)c(N2CCCCC2)c1", "note": "(centres unmarked) (as salt: sodium) [Cpd. 85, 2-(3-hydroxy-2,3-dihydro-1H-inden-5-yl)-N-{[4-methyl-2-(piperidin-1-yl)phenyl](5-methylfuran-2-yl)methyl}acetamide]", "melting point": 60},
      {"compound": "Cc1ccc(C(NC(=O)C2(c3ccc4c(c3)CC(=O)N4C)CC2)c2ccc(C)o2)c(C)c1", "note": "(centres unmarked) (as salt: HCl) [Cpd. 130, N-[(2,4-dimethylphenyl)(5-methylfuran-2-yl)methyl]-1-(1-methyl-2-oxo-2,3-dihydro-1H-indol-5-yl)cyclopropane-1-carboxamide]", "melting point": 72},
      {"compound": "Cc1ccc(C(NC(=O)Cc2ccc3[nH]cc(C(=O)N4CCOCC4)c3c2)c2ccc(C)o2)c(N2CCCCC2)c1", "note": "(centres unmarked) (as salt: HCl) [Cpd. 120, N-{[4-methyl-2-(piperidin-1-yl)phenyl](5-methylfuran-2-yl)methyl}-2-[3-(morpholine-4-carbonyl)-1H-indol-5-yl]acetamide]", "melting point": 124},
      {"compound": "Cc1ccc(C(NC(=O)C2(c3ccc4c(c3)CS(=O)(=O)N4C)CC2)c2ccc(C)o2)c(N(C)C)c1", "note": "(centres unmarked) (as salt: HCl) [Cpd. 133, N-{[2-(dimethylamino)-4-methylphenyl](5-methylfuran-2-yl)methyl}-1-(1-methyl-2,2-dioxo-1,3-dihydro-2,1-benzothiazol-5-yl)cyclopropane-1-carboxamide]", "melting point": 73},
      {"compound": "Cc1ccc(C(NC(=O)C2(c3ccc4c(ccn4CCC(=O)O)c3)CC2)c2ccc(C)o2)c(N2CCCCC2)c1", "note": "(centres unmarked) (as salt: sodium) [Cpd. 154, 3-{5-[1-({[4-methyl-2-(piperidin-1-yl)phenyl](5-methylfuran-2-yl)methyl}carbamoyl)cyclopropyl]-1H-indol-1-yl}propanoic acid]", "melting point": 90},
      {"compound": "Cc1ccc(C(NC(=O)Cc2ccc3[nH]cc(CO)c3c2)c2ccc(C)o2)c(N2CCCCC2)c1", "note": "(centres unmarked) (as salt: HCl) [Cpd. 58, 2-[3-(hydroxymethyl)-1H-indol-5-yl]-N-{[4-methyl-2-(piperidin-1-yl)phenyl](5-methylfuran-2-yl)methyl}acetamide]", "melting point": 99},
      {"compound": "Cc1ccc(C(NC(=O)Cc2ccc3c(c2)C(O)C(=O)N3)c2ccc(C)o2)c(N2CCCCC2)c1", "note": "(centres unmarked) (as salt: sodium) [Cpd. 46, 2-(3-hydroxy-2-oxo-2,3-dihydro-1H-indol-5-yl)-N-{[4-methyl-2-(piperidin-1-yl)phenyl](5-methylfuran-2-yl)methyl}acetamide]", "melting point": 110},
      {"compound": "CCSc1nc2cc(CC(=O)NC(c3ccccc3)c3ccc(C)cc3Br)ccc2[nH]1", "note": "(centres unmarked) (as salt: hydrochloride) [Cpd. 92, N-[(2-bromo-4-methylphenyl)(phenyl)methyl]-2-[2-(ethylsulfanyl)-1H-1,3-benzodiazol-5-yl]acetamide]", "melting point": 103},
      {"compound": "Cc1ccc(C(NC(=O)C2(c3ccc4c(c3)CS(=O)(=O)N4CC3CCOCC3)CC2)c2ccc(C)o2)c(C)c1", "note": "(centres unmarked) (as salt: HCl) [Cpd. 157, N-[(2,4-dimethylphenyl)(5-methylfuran-2-yl)methyl]-1-[1-(oxan-4-ylmethyl)-2,2-dioxo-1,3-dihydro-2,1-benzothiazol-5-yl]cyclopropane-1-carboxamide]", "melting point": 76},
      {"compound": "Cc1ccc(C(NC(=O)C2(c3ccc4c(c3)CS(=O)(=O)N4)CC2)c2ccc(Cl)o2)c(C)c1", "note": "(centres unmarked) (as salt: HCl) [Cpd. 87, N-[(5-chlorofuran-2-yl)(2,4-dimethylphenyl)methyl]-1-(2,2-dioxo-1,3-dihydro-2,1-benzothiazol-5-yl)cyclopropane-1-carboxamide]", "melting point": 86},
      {"compound": "Cc1ccc(C(NC(=O)Cc2ccc3c(c2)CCC3O)c2ccc(C)o2)c(N2CCCCC2)c1", "note": "(centres unmarked) (as salt: sodium) [Cpd. 52, 2-(1-hydroxy-2,3-dihydro-1H-inden-5-yl)-N-{[4-methyl-2-(piperidin-1-yl)phenyl](5-methylfuran-2-yl)methyl}acetamide]", "melting point": 97},
      {"compound": "Cc1ccc(C(NC(=O)C2(c3ccc4c(c3)OCC(=O)N4)CC2)c2cccc(Cl)c2)c(C)c1", "note": "(centres unmarked) (as salt: HCl) [Cpd. 143, N-[(3-chlorophenyl)(2,4-dimethylphenyl)methyl]-1-(3-oxo-3,4-dihydro-2H-1,4-benzoxazin-7-yl)cyclopropane-1-carboxamide]", "melting point": 181},
      {"compound": "Cc1ccc(C(NC(=O)C2(c3ccc4c(c3)CCC4=O)CC2)c2ccc(C)o2)c(C)c1", "note": "(centres unmarked) (as salt: HCl) [Cpd. 141, N-[(2,4-dimethylphenyl)(5-methylfuran-2-yl)methyl]-1-(1-oxo-2,3-dihydro-1H-inden-5-yl)cyclopropane-1-carboxamide]", "melting point": 56},
      {"compound": "Cc1ccc(C(NC(=O)Cc2ccc3c(ccn3CCC(=O)OC(C)(C)C)c2)c2ccc(C)o2)c(Br)c1", "note": "(centres unmarked) (as salt: HCl) [Cpd. 100, tert-butyl 3-[5-({[(2-bromo-4-methylphenyl)(5-methylfuran-2-yl)methyl]carbamoyl}methyl)-1H-indol-1-yl]propanoate]", "melting point": 149},
      {"compound": "Cc1ccc(C(NC(=O)C2(c3ccc4c(c3)OCC(=O)N4)CC2)c2ccc(Cl)o2)c(N2CCCCC2)c1", "note": "(centres unmarked) (as salt: HCl) [Cpd. 145, N-[(5-chlorofuran-2-yl)[4-methyl-2-(piperidin-1-yl)phenyl]methyl]-1-(3-oxo-3,4-dihydro-2H-1,4-benzoxazin-7-yl)cyclopropane-1-carboxamide]", "melting point": 199},
      {"compound": "Cc1ccc(C(NC(=O)C2(c3ccc4c(c3)OCC(=O)N4)CC2)c2ccc(C)o2)c(Br)c1", "note": "(centres unmarked) (as salt: HCl) [Cpd. 135, N-[(2-bromo-4-methylphenyl)(5-methylfuran-2-yl)methyl]-1-(3-oxo-3,4-dihydro-2H-1,4-benzoxazin-7-yl)cyclopropane-1-carboxamide]", "melting point": 82},
      {"compound": "Cc1ccc(C(NC(=O)Cc2ccc3c(c2)C(C)(C)C(=O)N3C)c2ccc(C)o2)c(N2CCCCC2)c1", "note": "(centres unmarked) (as salt: HCl) [Cpd. 40, N-{[4-methyl-2-(piperidin-1-yl)phenyl](5-methylfuran-2-yl)methyl}-2-(1,3,3-trimethyl-2-oxo-2,3-dihydro-1H-indol-5-yl)acetamide]", "melting point": 75},
      {"compound": "Cc1ccc(C(NC(=O)Cc2ccc3[nH]c(C)nc3c2)c2ccccc2)c(N2CCCC2)c1", "note": "(centres unmarked) (as salt: HCl) [Cpd. 82, 2-(2-methyl-1H-1,3-benzodiazol-5-yl)-N-{[4-methyl-2-(pyrrolidin-1-yl)phenyl](phenyl)methyl}acetamide]", "melting point": 132},
      {"compound": "Cc1ccc(C(NC(=O)C2(c3ccc4c(c3)OCO4)CC2)c2ccc(C)o2)c(Br)c1", "note": "(centres unmarked) (as salt: HCl) [Cpd. 161, 1-(2H-1,3-benzodioxol-5-yl)-N-[(2-bromo-4-methylphenyl)(5-methylfuran-2-yl)methyl]cyclopropane-1-carboxamide]", "melting point": 55},
      {"compound": "Cc1ccc(C(NC(=O)C2(c3ccc4c(c3)CN(S(C)(=O)=O)C4)CC2)c2ccc(Cl)o2)c(C)c1", "note": "(centres unmarked) (as salt: HCl) [Cpd. 56, N-[(5-chlorofuran-2-yl)(2,4-dimethylphenyl)methyl]-1-(2-methanesulfonyl-2,3-dihydro-1H-isoindol-5-yl)cyclopropane-1-carboxamide]", "melting point": 68},
      {"compound": "Cc1ccc(C(NC(=O)C2(c3ccc4c(c3)OCC(=O)N4)CC2)c2ccc(C)o2)c(C)c1", "note": "(centres unmarked) (as salt: HCl) [Cpd. 59, N-[(2,4-dimethylphenyl)(5-methylfuran-2-yl)methyl]-1-(3-oxo-3,4-dihydro-2H-1,4-benzoxazin-7-yl)cyclopropane-1-carboxamide]", "melting point": 89},
      {"compound": "Cc1ccc(C(NC(=O)Cc2ccc3[nH]cc(C(=O)CS(C)(=O)=O)c3c2)c2ccc(C)o2)c(C)c1", "note": "(centres unmarked) (as salt: HCl) [Cpd. 107, N-[(2,4-dimethylphenyl)(5-methylfuran-2-yl)methyl]-2-[3-(2-methanesulfonylacetyl)-1H-indol-5-yl]acetamide]", "melting point": 213}
    ]}
  ]
}
